Laboratory results published in ChEMBL document CHEMBL1144449, “Design, synthesis, and evaluation of orally active 4-(2,4-difluoro-5-(methoxycarbamoyl)phenylamino)pyrrolo[2,1-f][1,2,4]triazines as dual vascular endothelial growth factor receptor-2 and fibroblast growth factor receptor-1 inhibitors” (J Med Chem, 2005).

What was measured:
[1] = target: Fibroblast growth factor receptor (Homo sapiens, UniProt P22607+P11362+P22455+P21802); assay: Inhibition of FGF-stimulated human umbilical vein endothelial cell proliferation; assay type: functional, cell-based
[2] = target: Fibroblast growth factor receptor 1 (Homo sapiens, UniProt P11362); assay: Inhibition of human fibroblast growth factor receptor 1
[3] = target: Vascular endothelial growth factor receptor 2 (Homo sapiens, UniProt P35968); assay: Inhibition of human vascular endothelial growth factor receptor 2 kinase activity
[4] = target: Vascular endothelial growth factor receptor (Homo sapiens, UniProt P17948+P35916+P35968); assay: Inhibition of VEGF-stimulated human umbilical vein endothelial cell proliferation; assay type: functional, cell-based
[5] = Plasma level after 1 hour of oral administration of 50 mg/kg compound in mouse; assay type: ADME, organism-based; set-up: dose 50 mg/kg, route oral; details: read-out: Plasma level
[6] = Plasma level after 4 hours of oral administration of 50 mg/kg compound in mouse; assay type: ADME, organism-based; set-up: dose 50 mg/kg, route oral; details: read-out: Plasma level
Cytochrome P450 1A2 = target: T1, Cytochrome P450 1A2 (Homo sapiens, UniProt P05177); assay: Inhibitory concentration against human cytochrome P450 1A2; assay type: ADME
T1 sequence (P05177 whole entry): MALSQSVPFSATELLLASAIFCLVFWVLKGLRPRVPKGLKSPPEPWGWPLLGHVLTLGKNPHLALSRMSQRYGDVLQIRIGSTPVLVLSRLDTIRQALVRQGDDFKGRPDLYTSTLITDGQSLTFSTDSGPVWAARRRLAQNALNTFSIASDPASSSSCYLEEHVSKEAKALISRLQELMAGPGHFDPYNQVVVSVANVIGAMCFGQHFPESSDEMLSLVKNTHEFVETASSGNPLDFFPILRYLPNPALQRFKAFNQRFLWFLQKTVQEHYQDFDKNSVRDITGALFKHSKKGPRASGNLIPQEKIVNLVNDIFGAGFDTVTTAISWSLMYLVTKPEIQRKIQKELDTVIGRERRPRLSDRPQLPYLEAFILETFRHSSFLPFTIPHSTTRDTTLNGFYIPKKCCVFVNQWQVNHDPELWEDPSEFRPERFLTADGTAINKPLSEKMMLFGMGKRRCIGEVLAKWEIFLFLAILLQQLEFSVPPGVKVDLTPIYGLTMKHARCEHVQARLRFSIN

Cytochrome P450 2C9 = Cytochrome P450 2C9 (Homo sapiens, UniProt P11712); assay: Inhibitory concentration against human cytochrome P450 2C9; assay type: ADME
Cytochrome P450 3A4 = Cytochrome P450 3A4 (Homo sapiens, UniProt P08684); assay: Inhibitory concentration against human cytochrome P450 3A4; assay type: ADME
Mus musculus [7] = assay: Tumor growth inhibition determined after oral administration of […] mg/kg/day compound against established L2987 human lung carcinoma xenografts implanted subcutaneously in athymic mouse; assay type: functional; details: read-out: TGI
[8] = target: Protein kinase C alpha type (Homo sapiens, UniProt P17252); assay: Inhibition of human protein kinase C alpha
[9] = target: Receptor tyrosine-protein kinase erbB-2 (Homo sapiens, UniProt P04626); assay: Inhibition against human HER2 kinase
[10] = target: Cyclin-dependent kinase 2 (Homo sapiens, UniProt P24941); assay: Inhibition of human cyclin-dependent kinase 2
Mus musculus [11] = assay: Tumor growth inhibition determined after oral administration of 50 mg/kg/day compound against established L2987 human lung carcinoma xenografts implanted subcutaneously in athymic mouse; assay type: functional; details: read-out: TGI
[12] = target: Insulin-like growth factor 1 receptor (Homo sapiens, UniProt P08069); assay: Inhibition of human insulin-like growth factor I receptor
[13] = target: Platelet-derived growth factor receptor beta (Homo sapiens, UniProt P09619); assay: Inhibition of human platelet-derived growth factor receptor beta
Mus musculus [14] = assay: Tumor growth inhibition determined after oral administration of 100 mg/kg/day compound against established L2987 human lung carcinoma xenografts implanted subcutaneously in athymic mouse; assay type: functional; details: read-out: TGI
[15] = target: Tyrosine-protein kinase Lck (Homo sapiens, UniProt P06239); assay: Inhibition of human p56 lck tyrosine kinase
Mus musculus [16] = assay: Tumor growth inhibition determined after oral administration of 60 mg/kg/day compound against established L2987 human lung carcinoma xenografts implanted subcutaneously in athymic mouse; assay type: functional; details: read-out: TGI

Sequence of Fibroblast growth factor receptor 1 (P11362 whole entry): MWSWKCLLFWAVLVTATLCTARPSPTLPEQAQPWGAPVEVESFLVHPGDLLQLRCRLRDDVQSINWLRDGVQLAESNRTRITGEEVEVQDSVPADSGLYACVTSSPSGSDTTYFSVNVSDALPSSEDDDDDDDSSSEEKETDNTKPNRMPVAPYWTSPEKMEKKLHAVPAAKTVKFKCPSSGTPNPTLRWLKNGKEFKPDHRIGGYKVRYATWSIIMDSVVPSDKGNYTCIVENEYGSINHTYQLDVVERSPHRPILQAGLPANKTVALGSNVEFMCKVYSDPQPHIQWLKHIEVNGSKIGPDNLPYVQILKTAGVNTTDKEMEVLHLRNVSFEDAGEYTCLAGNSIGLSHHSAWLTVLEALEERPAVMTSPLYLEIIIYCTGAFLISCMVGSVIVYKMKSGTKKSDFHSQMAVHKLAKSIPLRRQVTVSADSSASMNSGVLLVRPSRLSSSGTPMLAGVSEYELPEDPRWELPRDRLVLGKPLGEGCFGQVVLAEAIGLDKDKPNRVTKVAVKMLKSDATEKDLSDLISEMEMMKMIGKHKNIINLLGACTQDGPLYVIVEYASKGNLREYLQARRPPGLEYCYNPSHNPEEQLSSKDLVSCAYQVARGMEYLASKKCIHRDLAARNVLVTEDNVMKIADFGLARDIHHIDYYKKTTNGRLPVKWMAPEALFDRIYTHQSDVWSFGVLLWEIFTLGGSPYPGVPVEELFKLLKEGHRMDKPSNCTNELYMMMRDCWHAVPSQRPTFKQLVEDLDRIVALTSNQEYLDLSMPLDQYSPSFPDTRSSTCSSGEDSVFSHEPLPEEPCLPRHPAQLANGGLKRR
Sequence of Vascular endothelial growth factor receptor 2 (P35968 whole entry): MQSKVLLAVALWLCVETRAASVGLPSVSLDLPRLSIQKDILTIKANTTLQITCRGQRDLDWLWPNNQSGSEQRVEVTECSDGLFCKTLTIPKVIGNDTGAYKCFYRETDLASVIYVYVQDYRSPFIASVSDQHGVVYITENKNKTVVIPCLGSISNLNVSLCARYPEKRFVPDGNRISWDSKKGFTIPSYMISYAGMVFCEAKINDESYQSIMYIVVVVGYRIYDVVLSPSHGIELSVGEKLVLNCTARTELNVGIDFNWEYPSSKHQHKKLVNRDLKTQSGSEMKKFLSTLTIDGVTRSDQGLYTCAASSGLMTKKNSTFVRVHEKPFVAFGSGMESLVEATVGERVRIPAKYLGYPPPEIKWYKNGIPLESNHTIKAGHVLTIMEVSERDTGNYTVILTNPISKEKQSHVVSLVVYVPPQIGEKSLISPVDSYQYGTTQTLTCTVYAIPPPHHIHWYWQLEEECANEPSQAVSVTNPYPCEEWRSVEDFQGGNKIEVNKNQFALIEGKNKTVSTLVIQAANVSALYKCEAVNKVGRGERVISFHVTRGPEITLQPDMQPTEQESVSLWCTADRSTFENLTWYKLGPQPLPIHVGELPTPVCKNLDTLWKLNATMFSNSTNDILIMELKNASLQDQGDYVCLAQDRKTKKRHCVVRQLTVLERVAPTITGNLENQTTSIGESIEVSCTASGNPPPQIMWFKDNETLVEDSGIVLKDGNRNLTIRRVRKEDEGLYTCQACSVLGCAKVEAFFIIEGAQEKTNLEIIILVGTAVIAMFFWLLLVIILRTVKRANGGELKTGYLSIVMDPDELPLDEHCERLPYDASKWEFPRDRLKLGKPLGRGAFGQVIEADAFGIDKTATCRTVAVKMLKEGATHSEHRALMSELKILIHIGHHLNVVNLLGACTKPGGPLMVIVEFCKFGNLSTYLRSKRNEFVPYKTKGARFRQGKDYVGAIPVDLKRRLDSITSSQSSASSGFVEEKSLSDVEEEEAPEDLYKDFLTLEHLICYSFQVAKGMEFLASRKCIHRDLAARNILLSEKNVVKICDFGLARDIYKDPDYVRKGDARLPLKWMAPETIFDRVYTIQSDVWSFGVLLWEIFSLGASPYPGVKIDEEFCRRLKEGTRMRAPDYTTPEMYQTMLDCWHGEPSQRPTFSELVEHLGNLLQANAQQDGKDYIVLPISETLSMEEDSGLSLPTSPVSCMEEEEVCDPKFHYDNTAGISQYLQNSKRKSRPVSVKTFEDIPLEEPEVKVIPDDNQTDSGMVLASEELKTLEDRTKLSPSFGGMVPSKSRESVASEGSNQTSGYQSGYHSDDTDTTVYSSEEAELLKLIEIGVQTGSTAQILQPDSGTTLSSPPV
Sequence of Insulin-like growth factor 1 receptor (P08069 31-736 limits assumed): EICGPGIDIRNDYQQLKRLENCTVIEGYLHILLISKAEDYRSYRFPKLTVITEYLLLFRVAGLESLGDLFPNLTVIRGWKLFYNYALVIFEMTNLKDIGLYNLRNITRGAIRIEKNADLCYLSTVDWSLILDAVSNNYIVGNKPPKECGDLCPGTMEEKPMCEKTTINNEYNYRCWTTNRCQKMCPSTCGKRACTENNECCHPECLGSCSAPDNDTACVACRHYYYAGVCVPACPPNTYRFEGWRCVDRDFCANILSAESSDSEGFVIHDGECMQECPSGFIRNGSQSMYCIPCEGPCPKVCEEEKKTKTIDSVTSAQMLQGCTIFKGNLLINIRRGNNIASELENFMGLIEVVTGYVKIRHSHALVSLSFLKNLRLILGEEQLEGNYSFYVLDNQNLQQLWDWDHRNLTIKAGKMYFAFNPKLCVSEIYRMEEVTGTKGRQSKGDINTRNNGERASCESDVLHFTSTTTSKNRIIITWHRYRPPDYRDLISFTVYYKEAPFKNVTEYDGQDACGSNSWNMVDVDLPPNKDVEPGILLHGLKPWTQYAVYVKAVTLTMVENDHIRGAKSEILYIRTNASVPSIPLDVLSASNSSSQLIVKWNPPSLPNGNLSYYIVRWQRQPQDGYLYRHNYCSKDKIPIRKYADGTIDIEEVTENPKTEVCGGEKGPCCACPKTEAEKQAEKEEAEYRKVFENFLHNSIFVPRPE
Sequence of Insulin-like growth factor 1 receptor (P08069 741-1367 limits assumed): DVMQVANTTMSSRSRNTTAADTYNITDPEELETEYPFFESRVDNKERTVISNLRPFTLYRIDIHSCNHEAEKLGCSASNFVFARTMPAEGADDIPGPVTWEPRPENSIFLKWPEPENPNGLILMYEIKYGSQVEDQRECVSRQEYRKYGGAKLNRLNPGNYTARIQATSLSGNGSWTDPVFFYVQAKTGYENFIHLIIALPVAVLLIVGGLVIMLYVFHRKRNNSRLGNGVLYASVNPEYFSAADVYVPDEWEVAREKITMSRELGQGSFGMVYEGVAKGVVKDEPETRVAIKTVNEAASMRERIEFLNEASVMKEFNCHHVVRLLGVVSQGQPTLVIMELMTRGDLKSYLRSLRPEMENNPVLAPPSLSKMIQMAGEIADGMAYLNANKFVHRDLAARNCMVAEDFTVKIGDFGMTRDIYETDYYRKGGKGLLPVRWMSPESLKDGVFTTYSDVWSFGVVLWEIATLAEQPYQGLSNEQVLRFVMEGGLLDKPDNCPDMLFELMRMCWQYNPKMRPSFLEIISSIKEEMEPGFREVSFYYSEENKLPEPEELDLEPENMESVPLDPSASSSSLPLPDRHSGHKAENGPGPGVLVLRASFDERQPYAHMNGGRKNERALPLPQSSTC
Sequence of Receptor tyrosine-protein kinase erbB-2 (P04626 whole entry): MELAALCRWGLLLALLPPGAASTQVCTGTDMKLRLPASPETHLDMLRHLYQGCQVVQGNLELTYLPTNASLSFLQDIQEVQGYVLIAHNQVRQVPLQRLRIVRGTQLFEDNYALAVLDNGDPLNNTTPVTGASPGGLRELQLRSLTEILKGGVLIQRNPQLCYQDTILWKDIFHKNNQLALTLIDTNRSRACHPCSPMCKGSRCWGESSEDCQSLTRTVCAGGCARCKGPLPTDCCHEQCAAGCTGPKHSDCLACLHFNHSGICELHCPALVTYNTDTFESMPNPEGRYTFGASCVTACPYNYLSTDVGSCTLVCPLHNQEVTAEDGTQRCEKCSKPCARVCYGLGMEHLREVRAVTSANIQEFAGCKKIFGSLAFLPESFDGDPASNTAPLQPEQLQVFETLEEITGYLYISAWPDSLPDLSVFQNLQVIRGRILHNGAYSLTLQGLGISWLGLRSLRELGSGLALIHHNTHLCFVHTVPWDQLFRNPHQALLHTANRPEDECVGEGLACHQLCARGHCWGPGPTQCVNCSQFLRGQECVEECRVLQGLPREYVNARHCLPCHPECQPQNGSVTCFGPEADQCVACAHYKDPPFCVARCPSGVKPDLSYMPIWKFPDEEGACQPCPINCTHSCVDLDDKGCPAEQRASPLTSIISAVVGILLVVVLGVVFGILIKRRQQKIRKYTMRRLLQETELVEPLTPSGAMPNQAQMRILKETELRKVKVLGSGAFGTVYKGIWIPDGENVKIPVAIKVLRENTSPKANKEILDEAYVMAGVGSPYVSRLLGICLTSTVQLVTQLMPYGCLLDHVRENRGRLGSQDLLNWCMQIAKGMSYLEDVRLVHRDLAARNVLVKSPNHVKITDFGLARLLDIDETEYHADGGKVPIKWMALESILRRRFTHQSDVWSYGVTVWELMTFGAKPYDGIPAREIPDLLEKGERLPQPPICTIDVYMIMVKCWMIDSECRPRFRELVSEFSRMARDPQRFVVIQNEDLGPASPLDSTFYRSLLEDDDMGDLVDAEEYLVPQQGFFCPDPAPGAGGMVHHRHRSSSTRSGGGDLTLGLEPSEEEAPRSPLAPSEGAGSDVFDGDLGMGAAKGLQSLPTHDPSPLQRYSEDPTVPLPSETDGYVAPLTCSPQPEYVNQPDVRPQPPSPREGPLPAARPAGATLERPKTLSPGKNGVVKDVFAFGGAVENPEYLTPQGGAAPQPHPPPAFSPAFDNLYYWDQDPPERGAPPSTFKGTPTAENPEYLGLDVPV

Compound | IC50 [1] | IC50 [2] | IC50 [3] | IC50 [4] | other results
CONC(=O)c1cc(Nc2ncnn3cc(-c4nnc(C5CC5)o4)c(C(C)C)c23)c(F)cc1F | 5.3 nM | 14 nM | 11 nM | 3.6 nM | 
CONC(=O)c1cc(Nc2ncnn3cc(NC(=O)OC4CCN(C)CC4)c(C(C)C)c23)c(F)cc1F |  |  | 36 nM | 19 nM | concentration at 1 h [5]: 5.1 µM; concentration at 4 h [6]: 3 µM
CONC(=O)c1cc(Nc2ncnn3cc(-c4nnc(CC5CC5)o4)c(C(C)C)c23)c(F)cc1F | 9.2 nM | 27 nM | 17 nM | 4 nM | 
CCOC(=O)c1cn2ncnc(Nc3cc(C(=O)NOCC(C)C)c(F)cc3F)c2c1C(C)C |  |  | 1200 nM |  | 
CONC(=O)c1cc(Nc2ncnn3cc(-c4nnc(CC(C)C)o4)c(C(C)C)c23)c(F)cc1F | 6.6 nM | 33 nM | 23 nM | 2.1 nM | 
CONC(=O)c1cc(Nc2ncnn3cc(NC(=O)OCCCN4CCCCC4)c(C(C)C)c23)c(F)cc1F |  |  | 79 nM | 62 nM | 
CONC(=O)c1cc(Nc2ncnn3cc(-c4n[nH]c(C)n4)c(C(C)C)c23)c(F)cc1F | 46 nM | 50 nM | 71 nM | 50 nM | 
CCOC(=O)c1cn2ncnc(Nc3ccc(Br)c(C(=O)NOC)c3)c2c1C(C)C |  |  | 270 nM |  | 
CONC(=O)c1cc(Nc2ncnn3cc(-c4ncc(C)o4)c(C(C)C)c23)c(F)cc1F | 4 nM | 20 nM | 8 nM | 1.1 nM | IC50 (Cytochrome P450 1A2): 64 nM; IC50 (Cytochrome P450 2C9): 3600 nM; IC50 (Cytochrome P450 3A4): 5100 nM
CONC(=O)c1cc(Nc2ncnn3cc(-c4nnc(C(F)F)o4)c(C(C)C)c23)c(F)cc1F | 21 nM | 100 nM |  |  | inhibition in vivo at 150 mg/kg/day (Mus musculus [7]): 88.4%; IC50 [8]: > 50000 nM; IC50 [9]: > 10000 nM; IC50 [10]: > 50000 nM; inhibition in vivo at 50 mg/kg/day (Mus musculus [11]): 30%; IC50 [12]: > 25000 nM; IC50 [13]: > 2000 nM; inhibition in vivo at 100 mg/kg/day (Mus musculus [14]): 46.5%; concentration at 1 h [5]: 187 µM; concentration at 4 h [6]: 155 µM
CONC(=O)c1cc(Nc2ncnn3cc(-c4nnc(CC(F)(F)F)o4)c(C(C)C)c23)c(F)cc1F | 44 nM | 68 nM | 29 nM | 25 nM | 
CONC(=O)c1cc(Nc2ncnn3cc(-c4noc(C)n4)c(C(C)C)c23)c(F)cc1F |  | 140 nM | 110 nM |  | 
CONC(=O)c1cc(Nc2ncnn3cc(NC(=O)OCCCS(C)(=O)=O)c(C(C)C)c23)c(F)cc1F |  | 58 nM |  |  | IC50 [8]: > 50000 nM; IC50 [9]: 5300 nM; IC50 [10]: > 50000 nM; IC50 [15]: 5100 nM; IC50 [12]: > 25000 nM; IC50 [13]: > 2000 nM; concentration at 1 h [5]: 7.9 µM; concentration at 4 h [6]: 13.8 µM
CCOC(=O)c1cn2ncnc(Nc3cc(C(=O)NOCC4CC4)c(F)cc3F)c2c1C(C)C |  |  | 190 nM |  | 
CONC(=O)c1cc(Nc2ncnn3cc(-c4nnc(CS(C)(=O)=O)o4)c(C(C)C)c23)c(F)cc1F | 4.6 nM | 16 nM | 16 nM | 2.1 nM | inhibition in vivo at 60 mg/kg/day (Mus musculus [16]): 42.6%; inhibition in vivo at 100 mg/kg/day (Mus musculus [14]): 74.9%; concentration at 1 h [5]: 288 µM; concentration at 4 h [6]: 232 µM
CCOC(=O)c1cn2ncnc(Nc3cc(C(=O)NOC)c(F)cc3F)c2c1C(C)C |  |  | 13 nM |  | 
CONC(=O)c1cc(Nc2ncnn3cc(-c4nnco4)c(C(C)C)c23)c(F)cc1F | 54 nM | 160 nM | 77 nM | 91 nM | 
